Data on 2 compounds can be found in PMC9939323 (Acta Pharmaceutica Sinica. B, 2022).

Each structure is given as a SMILES string.

Assay [1] has as its target neuraminidase (NA) of H1N1 (A/PR/8/34) (Influenza A virus (A/Puerto Rico/8/1934(H1N1)), UniProt P03468). Kind of assay: NA-Fluor fluorescence assay, whole virus. The format is biochemical. As to conditions: read-out: % inhibition at 10 μmol/L.
The target is the same in assay [2]. Kind of assay: NA-Fluor fluorescence assay, whole virus. Format: biochemical. To be noted: NA-Fluor substrate, […] °C, […] min preincubation, […] h.

neuraminidase (NA) of H1N1 (A/PR/8/34) (Influenza A virus (A/Puerto Rico/8/1934(H1N1)), UniProt P03468), sequence (P03468 whole entry): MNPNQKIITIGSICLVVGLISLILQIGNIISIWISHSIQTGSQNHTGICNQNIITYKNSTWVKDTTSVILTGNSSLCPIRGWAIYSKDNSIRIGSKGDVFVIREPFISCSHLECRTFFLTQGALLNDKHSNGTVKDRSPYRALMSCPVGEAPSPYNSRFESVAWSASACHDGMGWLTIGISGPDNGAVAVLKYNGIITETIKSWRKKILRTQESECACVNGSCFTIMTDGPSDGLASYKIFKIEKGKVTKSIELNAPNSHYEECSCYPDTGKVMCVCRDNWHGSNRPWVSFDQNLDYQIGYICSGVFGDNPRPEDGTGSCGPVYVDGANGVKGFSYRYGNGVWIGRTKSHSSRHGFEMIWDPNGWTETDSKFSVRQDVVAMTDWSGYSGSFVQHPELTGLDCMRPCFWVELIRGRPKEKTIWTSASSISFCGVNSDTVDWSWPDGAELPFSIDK

As for `Oc1ccc([C@H]2c3c(O)cc(O)cc3[C@H]3c4c(cc(O)cc4[C@@H]2c2cc(/C=C/c4cc(O)cc5c4[C@H](c4cc(O)cc(O)c4)[C@@H](c4ccc(O)cc4)O5)ccc2O)O[C@@H]3c2ccc(O)cc2)cc1` [vitisin A], the inhibition at 10 µM in assay [1] was determined as 43%. As for `Oc1ccc(/C=C/c2cc(O)cc3c2[C@@H](c2cc(O)cc(O)c2)[C@H](c2ccc(O)cc2)O3)cc1` [ε-viniferin], in assay [2], the “% inhibition at 10 μmol/L” value was “Ampelopsin A and ε-viniferin exhibited weak inhibitory effects”.
